Patent US9890185B2, “Urea derivatives useful as kinase inhibitors” (Respivert Limited, priority 2013, dated 2018)
Values after ≈ are worked out from the molar mass of the structure shown. Like-named read-outs stand apart in the source and are kept apart here.

Key:
p38 MAPK β = p38 MAPK β (Homo sapiens (Human), UniProt Q15759); assay: KINOMEscan enzyme binding assay (p38 MAPKβ); settings: KINOMEscan technology; read-out: Dissociation Constant, p38 MAPK β
Method: (§1) Kinase enzyme binding activities of compounds disclosed herein may be determined using a proprietary assay which measures active site-directed competition binding to an immobilized ligand (Fabian, M. A. et al., Nature Biotechnol., 2005, 23:329-336). These assays may be conducted by DiscoverX (formerly Ambit; San Diego, Calif.). The percentage inhibition produced by incubation with a test compound may be calculated relative to the non-inhibited control.

p38 MAPK α = p38 MAPK α (Homo sapiens (Human), UniProt Q16539); assay: KINOMEscan enzyme binding assay (p38 MAPKα); settings: KINOMEscan technology; read-out: Dissociation Constant, p38 MAPK α
Sequence of p38 MAPK α (Q16539 whole entry): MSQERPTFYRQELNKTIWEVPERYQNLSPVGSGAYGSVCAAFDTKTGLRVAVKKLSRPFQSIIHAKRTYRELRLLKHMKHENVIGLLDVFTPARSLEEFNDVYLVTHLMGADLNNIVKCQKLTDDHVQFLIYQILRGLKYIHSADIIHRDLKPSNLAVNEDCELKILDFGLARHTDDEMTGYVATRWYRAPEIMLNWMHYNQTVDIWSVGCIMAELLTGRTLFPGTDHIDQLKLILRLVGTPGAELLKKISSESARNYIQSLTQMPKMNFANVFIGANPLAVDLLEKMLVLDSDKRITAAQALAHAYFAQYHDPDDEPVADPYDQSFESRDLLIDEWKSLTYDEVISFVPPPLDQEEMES
Method: as §1

[1] = test system: endotoxin (LPS)-induced uveitis; assay: Endotoxin-induced uveitis in rats (in vivo assay vi); parameters: species or system Lewis rats; settings: for IL-1β Anterior tissue / IL-1β Posterior tissue: LPS-stimulated rats, topical to eye; for Cell counts: eyes of LPS-stimulated rats, topical
Method: Male, Lewis rats (6-8 weeks old, Charles River UK Limited) are housed in cages of 3 at 19-21° C. with a 12 h light/dark cycle (07:00/19:00) and fed a standard diet of rodent chow and water ad libitum. […] Untreated rats are injected with PBS. […] Before administration, the solution or suspension to be administered is agitated for 5 minutes to ensure a uniform suspension. 6 hours after LPS dosing, animals are euthanized by overdose with pentobarbitone (i.v.). Following euthanasia, the right eye of each animal is enucleated and dissected into front (anterior) and back (posterior) sections around the lens. Each section is weighed and homogenised in 500 μL of sterile phosphate buffered saline followed by 20 minutes centrifugation at 12000 rpm at 4° C. The resulting supernatant is divided into 3 aliquots and stored at −80° C. until subsequent cytokine analysis by R&D DuoSet ELISA.

[2] = Solubility in fasted-state simulated colonic fluid (FaSSCoF); assay type: physicochemical; settings: thermodynamic from solid, pH 6.5, 25° C.; for solubility thermodynamic at 24 h: 25 °C, pH 6.5, fassgf or other biorelevant; for solubility at 24 h: fassgf or other biorelevant, read-out: Solubility in the FaSSCoF medium
Method: The solubilities of compounds of the invention in FaSSCoF at pH 6.5 are determined using a modification of a previously-reported procedure (Vertzoni, M., et al. Pharm. Res. 2010, 27, 2187-2196). In place of the bile salt extract employed in the original procedure (which extract is no longer available), the modified procedure uses a mixture of sodium taurochlorate (0.15 g), glycocholic acid (0.15 g), ursodeoxycholic acid (0.05 g), cholic acid (0.05 g), and glycodeoxycholic acid (0.05 g). These five bile acids are ground together with a mortar and pestle to produce a fine white powder that is incorporated into the FaSSCoF, as outlined below.
Tris(hydroxymethyl)aminomethane (Tris; 0.275 g) and maleic acid (0.44 g) are dissolved in water (35 mL) to give a solution whose pH is adjusted to 6.5 by treatment with 0.5M NaOH (ca. 12 mL). The solution is then made up to 50 mL with water. A portion of this Tris/maleate buffer solution (ca. 25 mL) is added to a 0.5 L round-bottomed flask, before being treated with 0.00565 g of the bile acid mixture described above. Solutions of phosphatidylcholine (0.0111 g) in DCM (0.15 mL) and palmitic acid (0.0013 g) in DCM (0.15 mL) are added, then the organic solvent is evaporated off under reduced pressure at 40° C. until a clear solution, with no perceptible DCM odour, is achieved. The volume of the evaporated solution is adjusted to 50 mL by addition of the remainder of Tris/maleate buffer, then BSA (0.115 g) is added, before being dissolved by gentle agitation.
Test compounds are suspended in the pH 6.5 FaSSCoF medium to give a maximum final concentration of ca. 6 mg/mL. The suspensions are equilibrated at 25° C. for 24 h, before being filtered through a glass fibre C filter. The filtrates are then diluted as appropriate for injection and quantification by HPLC with reference to a standard. Different volumes of the standard, diluted and undiluted sample solutions are injected and the solubilities are calculated using the peak areas determined by integration of the peak found at the same retention time as the principal peak in the standard injection.

[3] = Run 1, read-out: pH 6.5 FaSSCoF Solubility Run 1
[4] = Run 2, read-out: pH 6.5 FaSSCoF Solubility Run 2

Sequence of p38 MAPK β (Q15759 whole entry): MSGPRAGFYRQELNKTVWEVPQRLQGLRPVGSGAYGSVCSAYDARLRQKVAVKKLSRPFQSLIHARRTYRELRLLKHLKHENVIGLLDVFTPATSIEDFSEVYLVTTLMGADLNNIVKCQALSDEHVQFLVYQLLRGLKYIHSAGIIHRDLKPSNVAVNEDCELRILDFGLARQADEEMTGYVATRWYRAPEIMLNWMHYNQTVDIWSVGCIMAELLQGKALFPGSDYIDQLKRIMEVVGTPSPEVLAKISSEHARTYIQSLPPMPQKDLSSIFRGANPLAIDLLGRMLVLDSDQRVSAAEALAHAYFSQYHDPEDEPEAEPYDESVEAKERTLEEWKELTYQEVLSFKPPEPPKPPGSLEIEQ

| SMILES | Kd (p38 MAPK β) | Kd (p38 MAPK α) | solubility thermodynamic at 24 h [2, 3] | solubility thermodynamic at 24 h [2, 4] | solubility at 24 h [2] | also measured |
| --- | --- | --- | --- | --- | --- | --- |
| COc1c(NC(=O)Nc2ccc(Oc3ccnc(Nc4ccccc4)c3)c3ccccc23)cc(C(C)(C)C)cc1[S+](C)[O-] (racemic) [Example 12, 1-(5-(tert-Butyl)-2-methoxy-3-(methylsulfinyl)phenyl)-3-(4-((2-(phenylamino)pyridin-4-yl)oxy)naphthalen-1-yl)urea] | 57 nM | 11 nM | – | – | – | – |
| COCCOCCOCCOc1cc(Nc2cc(Oc3ccc(NC(=O)Nc4cc(C(C)(C)C)cc(S(C)(=O)=O)c4OC)c4ccccc34)ccn2)cc(OC)c1 [Example 9, 1-(5-(tert-Butyl)-2-methoxy-3-(methylsulfonyl)phenyl)-3-(4-((2-((3-methoxy-5-(2-(2-(2-methoxyethoxy)ethoxy)ethoxy)phenyl)amino)pyridin-4-yl)oxy)naphthalen-1-yl)urea] | 340 nM | 26 nM | – | – | – | – |
| COc1cc(Nc2cc(Oc3ccc(NC(=O)Nc4cc(C(C)(C)C)cc(P(C)(C)=O)c4OC)c4ccccc34)ccn2)cc(C(N)=O)c1 [Example 37, 3-((4-((4-(3-(5-(tert-butyl)-3-(dimethylphosphoryl)-2-methoxyphenyl)ureido)-naphthalen-1-yl)oxy)pyridin-2-yl)amino)-5-methoxybenzamide] | – | 4.5 nM | – | – | – | IL-1β Anterior tissue ([1]; 0.1 mg/mL): 480.1 ± 113.7 pg/mL; IL-1β Posterior tissue ([1]; 0.1 mg/mL): 319.6 ± 64.8 pg/mL; IL-1β Anterior tissue ([1]; 1 mg/mL): 330.4 ± 94.2 pg/mL; IL-1β Posterior tissue ([1]; 1 mg/mL): 285.8 ± 96.4 pg/mL; Cell counts ([1]; 0.1 mg/mL): 39.1 ± 7.1; Cell counts ([1]; 1 mg/mL): 32.6 ± 9.5; Cytokine levels in anterior and posterior segments of the eyes ([1]; rats treated with intravitreal endotoxin LPS): significantly reduced |
| COc1cc(Nc2cc(Oc3ccc(NC(=O)Nc4cc(C(C)(C)C)cc([S+](C)[O-])c4OC)c4ccccc34)ccn2)ccc1C(=O)NCCN1CCOCC1 (stereo not drawn) [Example 72, 4-((4-((4-(3-(5-(tert-Butyl)-2-methoxy-3-(methylsulfinyl)phenyl)ureido)naphthalen-1-yl)oxy)pyridin-2-yl)amino)-2-methoxy-N-(2-morpholinoethyl)benzamide] | – | – | 10.7 µg/mL (≈ 13.7 µM) | 11.2 µg/mL (≈ 14.3 µM) | > 10 µg/mL | – |
| COc1cc(Nc2cc(Oc3ccc(NC(=O)Nc4cc(C(C)(C)C)cc(CC(N)=O)c4OC)c4ccccc34)ccn2)ccc1C(=O)NCC(CO)(CO)CO [Example 73, 4-((4-((4-(3-(3-(2-Amino-2-oxoethyl)-5-(tert-butyl)-2-methoxyphenyl)ureido)naphthalen-1-yl)oxy)pyridin-2-yl)amino)-N-(3-hydroxy-2,2-bis(hydroxymethyl)propyl)-2-methoxybenzamide] | – | – | 15.2 µg/mL (≈ 19.5 µM) | 16.6 µg/mL (≈ 21.3 µM) | > 10 µg/mL | – |
| COCCOCCOCCNC(=O)c1cc(Nc2cc(Oc3ccc(NC(=O)Nc4cc(C(C)(C)C)cc(CNC(=O)CN(C)C)c4OC)c4ccccc34)ccn2)cc(OC)c1 [Example 77, 3-((4-((4-(3-(5-(tert-Butyl)-3-((2-(dimethylamino)acetamido)methyl)-2-methoxyphenyl)ureido)naphthalen-1-yl)oxy)pyridin-2-yl)amino)-5-methoxy-N-(2-(2-(2-methoxyethoxy)ethoxy)ethyl)benzamide] | – | – | 12.3 µg/mL (≈ 14.2 µM) | 13 µg/mL (≈ 15 µM) | > 10 µg/mL | – |
